ChEMBL document CHEMBL3351354, “From the covalent linkage of drugs to novel inhibitors of ribonucleotide reductase: synthesis and biological evaluation of valproic esters of 3'-C-methyladenosine” (Bioorg Med Chem Lett, 2014)
Activity calls are given as the source filed them. The calls are words filed in the database; no cut-off is given here.

Columns and labels:
[1] = system: HL-60; experiment: Induction of cell cycle arrest in human HL60 cells assessed as accumulation at G1 phase at 0.5 mM after 24 hrs by propidium iodide staining based flow cytometry (reference value: 32%); assay type: functional
[2] = system: HL-60; experiment: Induction of cell cycle arrest in human HL60 cells assessed as accumulation at G2M phase at 0.5 mM after 24 hrs by propidium iodide staining based flow cytometry (reference value: 12%); assay type: functional
[3] = system: HL-60; experiment: Induction of cell cycle arrest in human HL60 cells assessed as accumulation at S phase at 0.5 mM after 24 hrs by propidium iodide staining based flow cytometry (reference value: 54%); assay type: functional
[4] = target: T1, Histone deacetylase (Homo sapiens) (UniProt Q13547+O15379+Q9UBN7+Q92769+Q9UQL6+Q8WUI4+Q9BY41+Q96DB2+P56524+Q9UKV0+Q969S8); experiment: Inhibition of HDAC in human HL60 cells assessed as increase in histone H3 acetylation at 1 mM after 24 hrs by Western blotting method; assay type: cell-based; conditions: HL-60
[5] = system: HL-60; experiment: Induction of cell cycle arrest in human HL60 cells assessed as accumulation at G2M phase at 2 mM after 24 hrs by propidium iodide staining based flow cytometry (reference value: 12%); assay type: functional
[6] = system: HL-60; experiment: Induction of cell cycle arrest in human HL60 cells assessed as accumulation at G1 phase at 5 mM after 24 hrs by propidium iodide staining based flow cytometry (reference value: 32%); assay type: functional
[7] = system: HL-60; experiment: Induction of cell cycle arrest in human HL60 cells assessed as accumulation at G1 phase at 2 mM after 24 hrs by propidium iodide staining based flow cytometry (reference value: 32%); assay type: functional
[8] = Growth inhibition of human Caco2 cells after 48 hrs by MTT assay; assay type: functional, cell-based, Caco-2; conditions: Homo sapiens, Caco-2, 48 h; read-out: IC50
[9] = system: HL-60; experiment: Induction of cell cycle arrest in human HL60 cells assessed as accumulation at G2M phase at 5 mM after 24 hrs by propidium iodide staining based flow cytometry (reference value: 12%); assay type: functional
[10] = system: HL-60; experiment: Induction of cell cycle arrest in human HL60 cells assessed as accumulation at S phase at 2 mM after 24 hrs by propidium iodide staining based flow cytometry (reference value: 54%); assay type: functional
[11] = Growth inhibition of human HL60 cells after 48 hrs by MTT assay; assay type: functional, cell-based, HL-60; conditions: Homo sapiens, HL-60, 48 h; read-out: IC50
[12] = system: HL-60; experiment: Induction of apoptosis in human HL60 cells after 24 to 48 hrs by acridine orange and ethidium bromide staining based fluorescence microscopy; assay type: functional, cell-based
[13] = system: HT-29; experiment: Growth inhibition of human HT-29 cells after 48 hrs by MTT assay; assay type: functional, cell-based; conditions: Homo sapiens, HT-29, 48 h; read-out: IC50
[14] = system: HL-60; experiment: Induction of cell cycle arrest in human HL60 cells assessed as accumulation at S phase at 5 mM after 24 hrs by propidium iodide staining based flow cytometry (reference value: 54%); assay type: functional
[15] = Cytotoxicity against human HL60 cells after 24 to 48 hrs by trypan blue dye exclusion method; assay type: functional, cell-based; conditions: HL-60
[16] = system: HuT78; experiment: Growth inhibition of human HUT78 cells after 48 hrs by MTT assay; assay type: functional, cell-based; conditions: Homo sapiens, HuT78, 48 h; read-out: IC50
[17] = system: K562; experiment: Growth inhibition of human K562 cells after 48 hrs by MTT assay; assay type: functional, cell-based; conditions: Homo sapiens, K562, 48 h; read-out: IC50
[18] = system: HeLa; experiment: Growth inhibition of human HeLa cells after 48 hrs by MTT assay; assay type: functional, cell-based; conditions: Homo sapiens, HeLa, 48 h; read-out: IC50
[19] = system: HL-60; experiment: Induction of ROS generation in human HL60 cells at 50 and 100 uM after 24 hrs by DCFH-DA staining based flow cytometry; assay type: functional, cell-based
[20] = system: MCF7; experiment: Growth inhibition of human MCF7 cells after 48 hrs by MTT assay; assay type: functional, cell-based; conditions: Homo sapiens, MCF7, 48 h; read-out: IC50
[21] = Half life in pH 7.4 isotonic sodium phosphate buffer at 37 degC by HPLC-DAD-ESI-MS method; assay type: physicochemical
[22] = target: T2, Ribonucleotide reductase (Homo sapiens) (UniProt P23921+Q7LG56); experiment: Inhibition of human recombinant ribonucleotide reductase at 1.2 mM; assay type: protein-complex assay
[23] = target: T2, Ribonucleotide reductase (Homo sapiens); experiment: Inhibition of human recombinant ribonucleotide reductase at 1.2 mM in presence of 3 mM ATP; assay type: protein-complex assay
[24] = target: T2, Ribonucleotide reductase (Homo sapiens); experiment: Inhibition of human recombinant ribonucleotide reductase at 1.2 mM in presence of dGTP; assay type: protein-complex assay
[25] = Half life in RPMI-1640 medium containing 10% fetal calf serum assessed as compound disappearance by HPLC-DAD-ESI-MS method; assay type: ADME, Bos taurus; conditions: cattle
[26] = target: T1, Histone deacetylase (Homo sapiens); experiment: Inhibition of HDAC in human HL60 cells assessed as increase in histone H3 acetylation at 10 and 100 uM after 24 hrs by Western blotting method; assay type: cell-based; conditions: HL-60
[27] = system: HL-60; experiment: Induction of cell cycle arrest in human HL60 cells assessed as accumulation at S phase at 100 uM after 24 hrs by propidium iodide staining based flow cytometry (reference value: 54%); assay type: functional
[28] = system: HL-60; experiment: Induction of cell cycle arrest in human HL60 cells assessed as accumulation at G2M phase at 100 uM after 24 hrs by propidium iodide staining based flow cytometry (reference value: 12%); assay type: functional
[29] = target: T2, Ribonucleotide reductase (Homo sapiens); experiment: Inhibition of human recombinant ribonucleotide reductase at 1.2 mM in presence of 1 mM ATP; assay type: protein-complex assay
[30] = system: HL-60; experiment: Induction of cell cycle arrest in human HL60 cells assessed as accumulation at G1 phase at 100 uM after 24 hrs by propidium iodide staining based flow cytometry (reference value: 32%); assay type: functional
[31] = target: T2, Ribonucleotide reductase (Homo sapiens); experiment: Inhibition of ribonucleotide reductase in human HL60 cells assessed as intracellular dNTP pools level at 0.3 mM after 1 hr by HPLC method; assay type: cell-based; conditions: HL-60
[32] = target: T3, Ribonucleotide reductase (Homo sapiens, UniProt P23921+Q7LG56); experiment: Competitive inhibition of human recombinant ribonucleotide reductase in presence of varying levels of ATP by Dixon plot; assay type: protein-complex assay
T3 sequence (P23921 whole entry): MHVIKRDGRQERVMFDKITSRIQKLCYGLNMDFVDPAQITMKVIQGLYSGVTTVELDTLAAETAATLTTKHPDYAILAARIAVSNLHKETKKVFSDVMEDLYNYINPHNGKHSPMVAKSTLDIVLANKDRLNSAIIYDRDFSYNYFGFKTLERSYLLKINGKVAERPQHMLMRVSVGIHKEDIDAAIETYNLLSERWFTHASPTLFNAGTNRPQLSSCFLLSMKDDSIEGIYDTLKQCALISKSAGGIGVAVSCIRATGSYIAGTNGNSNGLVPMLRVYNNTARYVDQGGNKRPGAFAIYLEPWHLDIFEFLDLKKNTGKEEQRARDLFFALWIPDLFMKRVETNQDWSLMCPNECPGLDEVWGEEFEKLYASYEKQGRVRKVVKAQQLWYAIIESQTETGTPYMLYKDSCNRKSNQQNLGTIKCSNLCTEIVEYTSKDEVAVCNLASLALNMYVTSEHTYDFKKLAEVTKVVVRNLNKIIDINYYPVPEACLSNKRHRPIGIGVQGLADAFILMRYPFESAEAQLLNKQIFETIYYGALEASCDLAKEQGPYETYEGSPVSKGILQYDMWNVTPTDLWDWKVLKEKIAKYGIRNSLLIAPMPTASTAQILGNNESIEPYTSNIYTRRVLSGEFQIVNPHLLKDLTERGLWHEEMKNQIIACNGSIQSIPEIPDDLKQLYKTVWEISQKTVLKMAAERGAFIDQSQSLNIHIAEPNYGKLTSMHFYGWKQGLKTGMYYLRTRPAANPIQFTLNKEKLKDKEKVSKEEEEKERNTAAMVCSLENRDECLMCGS
T3 sequence (Q7LG56 whole entry): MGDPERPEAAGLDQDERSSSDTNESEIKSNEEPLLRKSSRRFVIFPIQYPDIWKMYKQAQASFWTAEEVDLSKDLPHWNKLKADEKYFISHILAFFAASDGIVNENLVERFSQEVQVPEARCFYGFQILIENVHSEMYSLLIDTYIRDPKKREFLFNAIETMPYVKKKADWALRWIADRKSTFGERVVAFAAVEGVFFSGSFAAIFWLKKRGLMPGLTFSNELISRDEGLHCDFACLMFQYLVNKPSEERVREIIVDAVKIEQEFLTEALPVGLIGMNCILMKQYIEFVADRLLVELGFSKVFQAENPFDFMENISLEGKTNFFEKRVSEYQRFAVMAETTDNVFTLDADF

SMILES: NC(=O)NO [HYDROXYUREA]
- Activity [1]: 86%
- Activity [2]: 7%
- Activity [3]: 7%

SMILES: CCCC(CCC)C(=O)O [VALPROIC ACID]
- inhibition [4]: Active
- Activity [5]: 14%
- Activity [6]: 39%
- Activity [7]: 78%
- IC50 [8]: > 1000 µM
- Activity [9]: 55%
- Activity [10]: 8%
- IC50 [11]: 1700 µM
- AC50 ([12]; Homo sapiens, HL-60, read-out: AC50): 2500 µM
- IC50 [13]: > 1000 µM
- Activity [14]: 5%
- IC50 [15]: 1700 µM
- IC50 [16]: 1800 µM
- IC50 [17]: > 1000 µM
- IC50 [18]: 1000 µM
- Activity [19]: inactive
- IC50 [20]: 230 µM

SMILES: CCCC(CCC)C(=O)OC[C@H]1O[C@@H](n2cnc3c(N)ncnc32)[C@H](O)[C@]1(C)O
- half-life [21]: > 72 h
- inhibition [22]: Active
- inhibition [23]: inactive
- inhibition [24]: inactive
- IC50 [8]: > 200 µM
- half-life [25]: > 72 h
- inhibition [26]: inactive
- IC50 [11]: 67.1 µM
- AC50 ([12]; hl-60): Not Active
- IC50 [13]: > 200 µM
- Activity [27]: 44%
- Activity [28]: 14%
- IC50 [16]: 142 µM
- inhibition [29]: Active
- IC50 [17]: 200 µM
- Activity [30]: 42%
- inhibition [31]: Active
- IC50 [18]: > 200 µM
- IC50 [20]: > 200 µM
- Ki [32]: 400 µM
